# From patent US20260201324A1, “METHOD FOR DIFFERENTIATING NEURAL CREST STEM CELLS COMPRISING AXIAL SPECIFICATION INFORMATION” (BLESS BIOTHERAPEUTICS INC., priority 2022, published 2026)
# How the values were obtained:
# Type in all cases: cell-based, human
# [1] = tested on: initial NCSCs; test: Mechanism analysis of axial specification of initial NCSCs by signaling factors (immunochemical analysis, FACS); conditions: initial NCSCs isolated on Day 5; for ETS1 protein expression: FGF2 effect through BMP4
# From the text: (§1) The initial NCSCs were isolated on Day 5 of the differentiation, and then, on Days 5 or 10, the expression of the ETS1 protein was confirmed in the FGF2-treated NCSCs by immunochemical analysis, and the direct effects of various signaling factors on the initial NCSCs were confirmed by FACS analysis.
# [2] = tested on: NCSCs at the neural plate border-stage; test: mRNA expression of cranial and cardiac NCSC markers after second differentiation
# From the text: The NCSCs (those on Day 5 of the differentiation) at the neural plate border-stage obtained through the first differentiation in Example 3-1 were re-distributed and each treated with bFGF or CHIR99021+ retinoic acid to be differentiated into cranial NCSCs or cardiac NCSCs.
# [3] = tested on: SOX9 reporter hESCs; test: Differentiation into cranial NCSCs using SOX9 reporter hESC (FACS)
# From the text: as §1
# When NCSCs were differentiated without FGF2 treatment using SOX9: reporter hESC, a known marker of cranial NCSCs, the differentiation efficiency into cranial NCSCs was approximately 25%, and when treated with bFGF, the percentage of SOX9-expressing cells was 80% or more (FIGS. 8C and 8D).
# [4] = tested on: initial NCSCs (expressing p75 NGFR or HNK1); test: Gene expression analysis of NCSCs after second differentiation with axial specification stimulating factor
# Procedure: The NCSCs at the neural plate border-stage (cells on Day 5 of the differentiation) expressing p75 NGFR or HNK1 isolated by FACS in Example 3-1 were re-seeded at 300,000 cells per well in a 24-well plate coated with Geltrex, Matrigel, or Laminin+Fibronectin. After 24 hours, the PIM medium added on Day 5 for stabilization was gradually changed to a neurobasal medium containing 2% B-27 supplement, 1% N2 supplement, and 1% Glutamax together with fibroblast growth factor 2 (FGF2) (Table 2). As an axial specification stimulating factor, FGF2 was added to the culture medium on days 6 to 10 of differentiation, and the proliferated neural crest stem cells were purified by FACS using an antibody against the neural crest stem cell surface antigen p75 NGFR on days 11 to 14 of differentiation (FIG. 4).
# Accordingly, it was confirmed that the role of the non-NCSCs is to activate FGF signaling of the initial NCSCs, inducing to cranial specification.
# [5] = NCSCs treated at second differentiation
Molecule,ZIC1 gene expression [1],ETS1 protein expression [1],ZIC1 gene expression ([1]; listed as bFGF),mRNA expression of PRRX2 (cranial NCSC marker) [2],mRNA expression of SOX9 (cranial NCSC marker) [2],mRNA expression of TWIST1 (cranial NCSC marker) [2],"percentage of SOX9-expressing cells ([3]; SOX9 reporter hESC, cranial NCSC differentiation)",differentiation efficiency from SOX9 reporter hESCs into cranial neural crest stem cells ([3]; two-step differentiation method),"expression of the HOX gene [4, 5]","expression of the TWIST1 gene (marker gene of cranial NCSCs) [4, 5]","expression ratio of ETS1/ZIC1 ([4]; second culture for 5 days, isolated initial NCSC group and unisolated mixed cell group)","ZIC1 gene expression in single cells ([4]; single NCSCs, from Day 4)"
fibroblast growth factor 2 [FGF2],inhibit,promotion,inhibitory effect,increased,increased,increased,≥ 80%,about 80%,decreased expression,increased expression,increased,significant decrease
"BMP4: signaling protein promoting ETS1 in initial neural crest stem cells (protein, UniProt P12644 293-408, looked up) Bone morphogenetic protein 4: SPKHHSQRARKKNKNCRRHSLYVDFSDVGWNDWIVAPPGYQAFYCHGDCPFPLADHLNSTNHAIVQTLVNSVNSSIPKACCVPTELSAISMLYLDEYDKVVLKNYQEMVVEGCGCR",,promotion,,,,,,,,,,
